This is an account of results in patent US11464751B2, “Use of fluoroethylnormemantine for the prevention and treatment of anxiety” (REST THERAPEUTICS, priority 2017, dated 2022).

The subject of assay [1] is naive rats (Wistar). The note with it: 5 mg/kg, only after 7 days of treatment; cited from earlier work.
The test system of assay [2] is naive rats (Wistar). Kind of assay: Fear conditioning + extinction + stabilization (PTSD model). Type of assay: in vivo, rat. The settings on record: for Percentage of time of tetany (freezing) during the stabilization phase: 10 mg/kg. From the text: Several animal models have been developed to mimic the traumatic events that induce intense and recurrent fear symptoms characteristic of PTSD. • Pavlovian fear conditioning of the animals: This animal model consists of Pavlovian-type fear conditioning (Zovkic, Neuropsychopharmacology Reviews (2013) 38, 77-93): mice (or rats) are trained to associate exposure to danger (electric shock, etc.) with the presence of a specific cue or environment (sound cue for example). The memory of this association (danger-cue) is later tested by measuring tetany behavior (through fear) when the animal is re-exposed to the conditioning cue in the absence of real danger.
Again, the occurrence of symptoms of PTSD are assessed after a certain period of time, without exposure to the hazard, to simulate the long-term onset of PTSD pathology. • Fear extinction: After a fear conditioning as described above it can be of interest to apply a protocol to extinguish this fear. Classically, this phase is placed 24 hours after the conditioning phase.
The extinction protocols model the relearning of the normal (non-fear-motivated) response to the cue (sound) and are very useful in modeling PTSD. • Fear stabilization: It can be useful, to assess the performance of a treatment, to add a stabilization phase after the extinction phase, spaced 24 h apart. Typically, this phase puts the animals back under the extinction phase conditions. It then allows the detection of staggered performances of the treatments, but also of the resurgence of tetany (rebound effect).
In the following examples, the effects of memantine, propranolol and fluoroethylnormemantine (FENM, the subject of the present invention) are studied in naive rats (Wistar) subjected to various tests related to depression or anxiety and then compared.
The test substances are administered to rats intraperitoneally in a volume of 5 ml/kg, 30 minutes before the behavioral tests are performed.
The injected solutions contain either of the molecules in the form of one of their salts, a hydrochloride (memantine·HCl and FENM·HCl) for the nitrogen derivatives and as such for propranolol, at the concentrations indicated below in a mixture of 95% (NaCl 0.9% ww in water)/5% ethanol. In each experiment, the dose per kilogram is referenced.
The applicant used a fear conditioning test in which the clue (neutral conditional stimulus) is a sound, coupled with a danger (aversive unconditional stimulus) which is an electric shock delivered by the floor of the box. This conditioning is followed by a fear extinction phase with injection of the treatment solutions to be tested and then by a test phase itself. • Fear Conditioning Phase (FC): fear conditioning takes place in a standard conditioning box (context A, white box in Table 7) and the rats (8 per group) are subjected to 3 “sound-electroshock” pairs at times of 180 s, 381 s and 582 s after being placed in the box. Each sound lasts 20 s and each electroshock lasts 1 s with a current of 1 mA. • The fear extinction phase (Ext.) is conducted as follows: the rats are placed in a box similar to the one that will be used for the final test (context B, pink box in Table 7), for a 25-minute session. During this session, 24 presentations are made with the same sound as that used during the conditioning session (20 s each, 35 s apart). Of course, no electric shock is delivered, and the percentage of time of tetany (“freezing”) during the phase is recorded. • Stabilization phase: the day after the extinction phase, 30 minutes before the test phase, […] of 3 sounds (same sequence as used for conditioning), recording the percentage of time they remain still during this test phase. […]

`CNCCC(Oc1ccc(C(F)(F)F)cc1)c1ccccc1` (stereo not drawn) [fluoxetine]: in the assay on naive rats (Wistar) [1], the “anxiolytic activity (light-dark box, for comparison)” value is reported as “anxiolytic activity”.
Consider `CC(C)NCC(O)COc1cccc2ccccc12` (stereo not drawn) [Propranolol, propranolol, reference compound], for which the “Percentage of time of tetany (freezing) during the stabilization phase” value with naive rats (Wistar) [2] (Early treatment: one injection 30 minutes before the extinction phase) was determined as 26%; in the assay on naive rats (Wistar) [2] (Late treatment: one injection 30 minutes before the stabilization phase), 29%; in the assay with naive rats (Wistar) [2] (Protective effect: one injection 30 minutes before the conditioning phase) it was 28%. Besides, the “tetany in the stabilization phase compared with control” value with naive rats (Wistar) [2] (administered at conditioning, early or late post-traumatic treatment) is recorded as “does not differentiate from the control”. Also, the “tetany during the extinction phase” value with naive rats (Wistar) [2] (administered during the extinction phase, effect lost during the stabilization phase) was “reduces tetany”.
